# Results reported in patent US11976083B2, “Inhibitors of peptidylarginine deiminases” (Gilead Sciences, Inc., priority 2020, dated 2024).
# Molecular target: T1, human PAD4 (Homo sapiens, UniProt Q9UM07)
# T1 construct: human PAD4 (NM_012387), A2-P663, was PCR amplified; His-SUMO (N, cleaved yes); made in house; host or cells: E. coli BL21(DE3)
# Assay: In vitro PAD4 BAEE biochemical assay
# Settings: BAEE substrate 3 mM, 5 nM PAD4, 2 mM calcium chloride; geometric mean of multiple experiments
# Text: In Vitro PAD4 BAEE Biochemical Assay
# The enzymatic activity of human PAD4 was monitored in a biochemical assay in the presence or absence of compounds using the small peptidyl arginine mimic BAEE (Na-Benzoyl-L-arginine ethyl ester hydrochloride) as substrate. PAD4 activity led to deimination of BAEE and release of ammonia. Levels of ammonia were monitored by using an amine coupling reaction and were indicative of PAD4 enzymatic activity.
# One hundred nanoliters of test compounds dissolved in DMSO at various concentrations were dispensed into a 384-well black OptiPlate using a Labcyte Echo instrument. Ten microliters of a solution of recombinant PAD4 and calcium chloride diluted in PAD4 assay buffer (50 mM MOPS [3-(N-morpholino) propanesulfonic acid], pH 7.6; 50 mM sodium chloride; 0.05% Tween-20; 2 mM dithiothreitol) was added to the compound-containing plate and was incubated for 30 minutes at 25° C. Ten microliters of a solution of BAEE (Sigma-Aldrich #B4500) diluted in PAD4 assay buffer was then added to start the reaction. Final concentrations were 5 nM PAD4, 2 mM calcium chloride, and 3 mM BAEE. The reaction mixture was incubated at 25° C. for 2 hours and was stopped with the addition of 10 microliters of a solution of 75 mM EDTA (Ethylenediaminetetraacetic acid) in PAD4 assay buffer. Thirty microliters of detection solution (5 mM o-phthalaldehyde, 50 mM MOPS [3-(N-morpholino) propanesulfonic acid], pH 7.6; 50 mM sodium chloride; 0.05% Tween-20; 5 mM dithiothreitol) was then added and the reaction was incubated for 1 hour at 25° C. The level of fluorescent thiol-substituted isoindole resulting from the reaction of ammonia, o-phthalaldehyde, and dithiothreitol was measured on an Envision plate reader (PerkinElmer) with 405 nm excitation and 535 nm emission.
# Data were normalized based on maximum inhibition (50 micromolar of the covalent PAD inhibitor BB-Cl-Amidine (Bicker, K. L.; Anguish, L.; Chumanevich, A. A.; Cameron, M. D.; Cui, X.; Witalison, E.; Subramanian, V.; Zhang, X.; Chumanevich, A. P.; Hofseth, L. J.; Coonrod, S. A.; Thompson, P. R. ACS Med. Chem. Lett. 2012, 3, 1081-1085). and no inhibition (DMSO) controls. Least squares curve fittings were performed using a four-parameter variable slope nonlinear regression model. IC50 is defined as the concentration of compound required to inhibit 50% of maximum activity. IC50 values from multiple experiments were averaged by geometric mean and the standard deviation was calculated.
# T1 sequence (Q9UM07 2-663): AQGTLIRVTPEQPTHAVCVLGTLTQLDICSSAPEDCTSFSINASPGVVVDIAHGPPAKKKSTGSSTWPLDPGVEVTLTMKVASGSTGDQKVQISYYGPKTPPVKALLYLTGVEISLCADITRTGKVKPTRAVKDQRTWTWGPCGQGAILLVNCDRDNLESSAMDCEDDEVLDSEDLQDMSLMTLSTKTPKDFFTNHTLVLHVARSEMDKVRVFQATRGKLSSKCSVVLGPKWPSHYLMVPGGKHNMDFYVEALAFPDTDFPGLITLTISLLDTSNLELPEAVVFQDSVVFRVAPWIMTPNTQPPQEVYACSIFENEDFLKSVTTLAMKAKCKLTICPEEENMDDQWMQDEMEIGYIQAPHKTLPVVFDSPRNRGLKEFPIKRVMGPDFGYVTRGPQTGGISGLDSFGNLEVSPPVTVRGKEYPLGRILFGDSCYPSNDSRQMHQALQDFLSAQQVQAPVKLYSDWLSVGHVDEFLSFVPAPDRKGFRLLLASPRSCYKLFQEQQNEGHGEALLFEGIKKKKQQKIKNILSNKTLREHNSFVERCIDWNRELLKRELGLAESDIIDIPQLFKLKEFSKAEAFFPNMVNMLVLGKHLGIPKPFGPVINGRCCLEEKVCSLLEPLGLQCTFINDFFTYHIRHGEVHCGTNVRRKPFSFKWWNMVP
row,Structure (SMILES),IC50
1,"C[C@H]1NC(=O)[C@@H]2C[C@H]2CCCC(F)(F)Cn2c(-c3nc4cc(C(=O)N5C[C@H](N)[C@@H]6CC[C@H]5C6)cc(F)c4n3[C@H]3C[C@@H]3C(F)F)cc3ccc1nc32 (single isomer, unassigned) [Example 453, (2~{R},5~{R},7~{R})-14-[5-[(1~{S},4~{R},5~{R})-4-amino-2-azabicyclo[3.2.1]octane-2-carbonyl]-1-[(1~{S},2~{S})-2-(difluoromethyl)cyclopropyl]-7-fluoro-benzimidazol-2-yl]-11,11-difluoro-2-methyl-3,13,19-triazatetracyclo[11.5.2.0^{5,7}.0^{16,20}] icosa-1(19),14,16(20),17-tetraen-4-one]",53 nM
2,"COc1cc(C(=O)N[C@H]2CNCC[C@@H]2F)cc2nc(-c3cc4ccc5nc4n3CCCCC[C@H]3CC[C@@H]3C(=O)N[C@@H]5C)n(C)c12 (single isomer, unassigned) [Example 486, ˜{N}-[(3˜{S},4˜{S})-4-fluoro-3-piperidyl]-7-methoxy-1-methyl-2-[(2˜{R},5˜{S},8˜{S})-2-methyl-4-oxo-3,14,20-triazatetracyclo[12.5.2.0^{5,8}.0^{17,21}]henicosa-1(20),15,17(21),18-tetraen-15-yl]benzimidazole-5-carboxamide]",110 nM
3,"COc1cc(C(=O)N[C@H]2CNCC[C@@H]2F)cc2nc(-c3cc4ccc5nc4n3CCCCC[C@@H]3CC[C@H]3C(=O)N[C@@H]5C)n(C)c12 (single isomer, unassigned) [Example 487, ˜{N}-[(3˜{S},4˜{S})-4-fluoro-3-piperidyl]-7-methoxy-1-methyl-2-[(2˜{R},5˜{R},8˜{R})-2-methyl-4-oxo-3,14,20-triazatetracyclo[12.5.2.0^{5,8}.0^{17,21}]henicosa-1(20),15,17(21),18-tetraen-15-yl]benzimidazole-5-carboxamide]",82 nM
4,"COc1cc(C(=O)N2C[C@H](N)[C@@H]3CC[C@H]2C3)cc2nc(-c3cc4ccc5nc4n3CCCCCC[C@@](F)(c3ccccn3)C(=O)N[C@@H]5C)n(C3CC3)c12 (single isomer, unassigned) [Example 944, (8˜{R},11˜{R})-17-[5-[(1˜{S},4˜{R},5˜{R})-4-amino-2-azabicyclo[3.2.1]octane-2-carbonyl]-1-cyclopropyl-7-methoxy-benzimidazol-2-yl]-8-fluoro-11-methyl-8-(2-pyridyl)-1,10,19-triazatricyclo[10.5.2.0^{15,18}]nonadeca-12(19),13,15(18),16-tetraen-9-one]",64 nM
5,"COc1cc(C(=O)N2C[C@H](N)[C@@H]3CC[C@H]2C3)cc2nc(-c3cc4ccc5nc4n3CCCCCC[C@](F)(c3ccccn3)C(=O)N[C@@H]5C)n(C3CC3)c12 (single isomer, unassigned) [Example 945, (8˜{S},11˜{R})-17-[5-[(1˜{S},4˜{R},5˜{R})-4-amino-2-azabicyclo[3.2.1]octane-2-carbonyl]-1-cyclopropyl-7-methoxy-benzimidazol-2-yl]-8-fluoro-11-methyl-8-(2-pyridyl)-1,10,19-triazatricyclo[10.5.2.0^{15,18}]nonadeca-12(19),13,15(18),16-tetraen-9-one]",34 nM
6,"COc1cc(C(=O)N2CCC[C@@H](N)C2)cc2nc(-c3cc4ccc5nc4n3CCCCCC[C@@](C)(C(F)(F)F)C(=O)N[C@@H]5C)n(C)c12 [Example 1, (8~{R},11~{R})-17-[5-[(3~{R})-3-aminopiperidine-1-carbonyl]-7-methoxy-1-methyl-benzimidazol-2-yl]-8,11-dimethyl-8-(trifluoromethyl)-1,10,19-triazatricyclo[10.5.2.0^{15,18}]nonadeca-12(19),13,15(18),16-tetraen-9-one]",104 nM
7,"COc1cc(C(=O)N2CCC[C@@H](N)C2)cc2nc(-c3cc4ccc5nc4n3CCCCCC[C@](C)(C(F)(F)F)C(=O)N[C@@H]5C)n(C)c12 [Example 4, (8~{S},11~{R})-17-[5-[(3~{R})-3-aminopiperidine-1-carbonyl]-7-methoxy-1-methyl-benzimidazol-2-yl]-8,11-dimethyl-8-(trifluoromethyl)-1,10,19-triazatricyclo[10.5.2.0^{15,18}]nonadeca-12(19),13,15(18),16-tetraen-9-one]",69 nM
8,"COc1cc(C(=O)N2C[C@H](N)CC[C@@H]2C)cc2nc(-c3cc4ccc5nc4n3CCCCCCC(C)(C)C(=O)N[C@@H]5C)n(C)c12 [Example 5, (11~{R})-17-[5-[(2~{S},5~{R})-5-amino-2-methyl-piperidine-1-carbonyl]-7-methoxy-1-methyl-benzimidazol-2-yl]-8,8,11-trimethyl-1,10,19-triazatricyclo[10.5.2.0^{15,18}]nonadeca-12(19),13,15(18),16-tetraen-9-one]",76 nM
9,"COc1cc(C(=O)N2CC[C@@H](OC(F)F)[C@@H](N)C2)cc2nc(-c3cc4ccc5nc4n3CCCCC[C@@H]3C[C@H]3C(=O)N[C@@H]5C)n(C)c12 [Example 6, (2~{R),5~{R},7~{R})-14-[5-[(3~{S},4~{R})-3-amino-4-(difluoromethoxy)piperidine-1-carbonyl]-7-methoxy-1-methyl-benzimidazol-2-yl]-2-methyl-3,13,19-triazatetracyclo[11.5.2.0^{5,7}.0^{16,20}] icosa-1(19),14,16(20),17-tetraen-4-one]",105 nM
10,"COc1cc(C(=O)N2CC[C@@H](OC(F)F)[C@@H](N)C2)cc2nc(-c3cc4ccc5nc4n3CCCCCc3nccnc3C(=O)N[C@@H]5C)n(C)c12 [Example 7, (2~{R})-17-[5-[(3~{S},4~{R})-3-amino-4-(difluoromethoxy)piperidine-1-carbonyl]-7-methoxy-1-methyl-benzimidazol-2-yl]-2-methyl-3,6,9,16,22-pentazatetracyclo[14.5.2.0^{5,10}.0^{19, 23}]tricosa-1(22),5(10),6,8,17,19(23),20-heptaen-4-one]",101 nM
11,"COc1cc(C(=O)N2[C@H]3CC[C@@H]2[C@H](N)C3)cc2nc(-c3cc4ccc5nc4n3C[C@H]3CC[C@H]3COCCC(=O)N[C@@H]5C)c(C)n12 [Example 8, (3~{S},6~{R},13~{R})-19-[7-[(1~{R},2~{R},4~{S})-2-amino-7-azabicyclo[2.2.1]heptane-7-carbonyl]-5-methoxy-3-methyl-imidazo[1,2-a]pyridin-2-yl]-13-methyl-8-oxa-1,12,21-triazatetracyclo[12.5.2.0^{3,6}.0^{17,20}] henicosa-14(21),15,17(20),18-tetraen-11-one]",71 nM
12,"COc1cc(C(=O)N2[C@H]3CC[C@@H]2[C@H](N)C3)cc2nc(-c3cc4ccc5nc4n3C[C@@H]3CC[C@@H]3COCCC(=O)N[C@@H]5C)c(C)n12 [Example 9, (3~{R},6~{S},13~{R})-19-[7-[(1~{R},2~{R},4~{S})-2-amino-7-azabicyclo[2.2.1]heptane-7-carbonyl]-5-methoxy-3-methyl-imidazo[1,2-a]pyridin-2-yl]-13-methyl-8-oxa-1,12,21-triazatetracyclo[12.5.2.0^{3,6}.0^{17,20}] henicosa-14(21),15,17(20),18-tetraen-11-one]",53 nM
13,"COc1cc(C(=O)N2[C@H]3CC[C@@H]2[C@H](N)C3)cc2nc(-c3cc4ccc5nc4n3CCCCCC[C@@](C)(C(F)(F)F)C(=O)N[C@@H]5C)n(C)c12 [Example 12, (8~{R},11~{R})-17-[5-[(1~{R},2~{R},4~{S})-2-amino-7-azabicyclo[2.2.1]heptane-7-carbonyl]-7-methoxy-1-methyl-benzimidazol-2-yl]-8,11-dimethyl-8-(trifluoromethyl)-1,10,19-triazatricyclo[10.5.2.0^{15,18}]nonadeca-12(19),13,15(18),16-tetraen-9-one]",120 nM
